Read-outs that look alike come from different tables or passages of the source.
Columns and labels:
[1] = tested on: glutamate 5′-kinase (LmjF.26.2710); assay: Multitargeted bead mixture competition; format: binding, Leishmania; details: for fold change vs vehicle control / fold change: protein LMJF.26.2710 GLUTAMATE 5-KINASE, PUTATIVE; for fold change: vehicle control = 1
[2] = biological target: T1, MTHFS, the 5-formyl-THF-cyclo-ligase (Homo sapiens, UniProt P49914); assay: Multitargeted bead mixture competition, HeLa cell extract; format: binding; details: for binding to MTHFS: bead mixture, HeLa cell extract
T1 sequence (P49914 1-203): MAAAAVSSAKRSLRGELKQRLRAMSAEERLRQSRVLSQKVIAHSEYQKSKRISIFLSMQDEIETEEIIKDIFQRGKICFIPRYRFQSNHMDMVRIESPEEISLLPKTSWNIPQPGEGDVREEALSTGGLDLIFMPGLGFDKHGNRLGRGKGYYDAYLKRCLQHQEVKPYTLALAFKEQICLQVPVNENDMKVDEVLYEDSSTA

[3] = biological target: inosine-5′-monophosphate dehydrogenase (Tb927.10.16120) (Trypanosoma brucei brucei, UniProt P50098); assay: Multitargeted bead mixture competition; format: binding, T. brucei; details: for fold change: protein TB927.10.16120 INOSINE-5'-MONOPHOSPHATE DEHYDROGENASE, vehicle control = 1
DHCH = assay: Multitargeted bead mixture competition; format: binding, L. major; details: CYTOPLASMIC, PUTATIVE; for fold change: vehicle control = 1
TS = biological target: T2, TS (Homo sapiens, UniProt P04818); assay: Multitargeted bead mixture competition, HeLa cell extract; format: binding
T2 construct: endogenous in cells; host or cells: HeLa cell extract

[4] = tested on: haloacid dehalogenase-like hydrolase (LmjF.28.1370); assay: Multitargeted bead mixture competition; format: binding, Leishmania; details: for fold change: protein LMJF.28.1370 HALOACID DEHALOGENASE-LIKE HYDROLASE, PUTATIVE, vehicle control = 1
[5] = protein LMJF.26.0320 C-1-TETRAHYDROFOLATE SYNTHASE
[6] = bead mixture, Leishmania lysates
[7] = protein LMJF.26.0320 C-1-TETRAH[…]

Chain of inosine-5′-monophosphate dehydrogenase (Tb927.10.16120) (P50098 whole entry): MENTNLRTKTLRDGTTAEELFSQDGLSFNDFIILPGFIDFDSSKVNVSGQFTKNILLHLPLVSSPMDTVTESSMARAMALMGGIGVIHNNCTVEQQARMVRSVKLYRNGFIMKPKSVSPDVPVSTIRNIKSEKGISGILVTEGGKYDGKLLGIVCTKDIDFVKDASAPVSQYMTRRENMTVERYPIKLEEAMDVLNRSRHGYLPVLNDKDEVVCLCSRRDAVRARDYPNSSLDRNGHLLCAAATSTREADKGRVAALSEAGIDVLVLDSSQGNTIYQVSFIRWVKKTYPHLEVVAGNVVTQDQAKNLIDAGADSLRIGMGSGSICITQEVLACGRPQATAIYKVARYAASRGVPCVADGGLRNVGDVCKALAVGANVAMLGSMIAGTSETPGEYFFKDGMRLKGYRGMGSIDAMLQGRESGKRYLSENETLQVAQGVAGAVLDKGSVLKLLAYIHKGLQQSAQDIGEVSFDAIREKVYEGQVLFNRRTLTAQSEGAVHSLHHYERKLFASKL
T2 sequence (P04818 whole entry): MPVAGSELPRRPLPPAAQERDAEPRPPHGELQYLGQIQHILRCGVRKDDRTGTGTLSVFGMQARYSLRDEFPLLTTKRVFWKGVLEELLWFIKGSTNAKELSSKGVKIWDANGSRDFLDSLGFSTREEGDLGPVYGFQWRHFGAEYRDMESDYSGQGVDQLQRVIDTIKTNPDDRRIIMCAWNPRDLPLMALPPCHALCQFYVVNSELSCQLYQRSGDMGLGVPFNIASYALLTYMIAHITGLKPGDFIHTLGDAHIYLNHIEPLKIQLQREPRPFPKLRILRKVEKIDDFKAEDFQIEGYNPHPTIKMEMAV

Structure (SMILES) | fold change vs vehicle control [1] | binding to MTHFS [2] | fold changes relative to vehicle control ([2]; protein MTHFS, HeLa) | fold change [3] | fold change (DHCH; [5]) | inhibition, TS (TS; bead mixture, HeLa cell extract) [%] | fold changes relative to vehicle control (TS; protein TYMS, HeLa) | fold change [4] | association with glutamate 5′-kinase (LmjF.26.2710) [1, 6] | fold changes relative to vehicle control [2] | binding to inosine-5′-monophosphate dehydrogenase (Tb927.10.16120) ([3]; bead mixture, T. brucei lysates) | fold change (DHCH; [7]) | fold changes relative to vehicle control (TS) | inhibition, TS (TS) [%] | fold change [1] | fold changes relative to vehicle control ([2]; captured protein MTHFS, HeLa) | fold change vs vehicle control (DHCH; [5]) | fold changes relative to vehicle control (TS; captured protein TYMS, HeLa) | interaction with haloacid dehalogenase-like hydrolase (LmjF.28.1370) [4, 6] | fold change vs vehicle control (DHCH; [7])
Nc1nc2c(c(=O)[nH]1)N(C=O)C(CNc1ccc(C(=O)N[C@@H](CCC(=O)O)C(=O)O)cc1)CN2 (stereo partly shown) [LEU, leucovorin] | 1.15 | bound MTHFS | 0.15 | 1.11 | 0.98 | > 56 | 0.44 | 1.05 |  |  |  |  |  |  |  |  |  |  |  | 
Nc1nc2[nH]cc(CCc3ccc(C(=O)N[C@@H](CCC(=O)O)C(=O)O)cc3)c2c(=O)[nH]1 [PTX, pemetrexed] | 0.14 | bound MTHFS |  | 0.49 |  |  |  | 0.93 | strongly associated | 0.17 | appeared to bind | 0.79 | 0.34 | > 56 |  |  |  |  |  | 
CCCCCCOc1ccc(Cc2cnc(N)nc2N)cc1 [compound 1] |  |  |  | 0.93 |  |  |  | 0.13 |  |  |  |  |  |  | 1.07 | 0.21 | 0.93 | 0.76 | interacted strongly | 
CCCCCCOc1cccc(Cc2cnc(N)nc2N)c1 [compound 2] |  |  |  | 1.03 |  |  |  | 1 |  |  |  |  |  |  | 1.07 | 0.89 | 0.96 | 1.31 |  | 
Nc1nc2cccc(-c3ccccc3)c2n1Cc1ccc(Cl)c(Cl)c1 [compound 3] |  |  |  | 1 |  |  |  | 1.07 |  |  |  |  |  |  | 1.05 | 0.96 |  | 0.99 |  | 0.96
NCCOCCOCC(=O)Nc1nc2ncc(CNc3ccc(C(=O)NC(CCC(=O)O)C(=O)O)cc3)nc2c(=O)[nH]1 (stereo not shown) [compound 6] | 1.06 |  | 0.5 | 1 | 0.98 |  | 0.55 | 0.89 |  |  |  |  |  |  |  |  |  |  |  | 
NCCCNc1ccc(C(=O)NC(CCC(=O)O)C(=O)O)cc1 (stereo not shown) [compound 7] | 1 |  | 1.03 | 1.04 |  |  | 1.04 | 1.02 |  |  |  | 1.06 |  |  |  |  |  |  |  | 
